Where only a bound is given, the exact number is not on record here.

The source of these data is PMC12406192, “Sustainable Joullié–Ugi and Continuous Flow Implementation Led to Novel Captopril-Inspired Broad-Spectrum Metallo-β-Lactamase Inhibitors” (Journal of Medicinal Chemistry, 2025).

In assay [1] the test system is MBL-producing clinical isolates. As to the kind of experiment: Synergistic activity with imipenem on the whole panel of clinical isolates. It counts as cell-based. The method, then: (§1) In vitro antimicrobial susceptibility testing was performed according to established standards. […]. The strains used in the study were described elsewhere.
For assay [2], the target named is T1, human angiotensin-converting enzyme 1 (ACE-1) (Homo sapiens, UniProt P12821).
T1 construct: purchased Sigma-Aldrich CS0002
Nature of the assay: ACE Activity Assay Kit, fluorogenic substrate. It counts as biochemical. The conditions noted are these: 50 μM inhibitor. How it is done:
To assess the selectivity of the compounds, their inhibitory activity on human angiotensin-converting enzyme 1 (ACE-1) was performed using the ACE Activity Assay Kit (Sigma-Aldrich cat. No. CS0002). […] Captopril (racemic mixture, D- and L-stereoisomers) was used as control in these experiments.

Assay [3] relates to E. coli SI-G001 (bla NDM‑4 +). The assay is classed as cell-based. To be noted: compound at 32 μg/mL; median of three experiments. The method, then:
(§2) In vitro antimicrobial susceptibility testing was performed according to established standards. […] The strains used in the study were described elsewhere.

In assay [4] the test system is E. coli SI–N003 (bla NDM‑7 +). The assay is classed as cell-based. The conditions noted are these: compound at 32 μg/mL; median of three experiments. How it is done: as §2
Assay [5] concerns K. pneumoniae VA-416/02 (bla VIM‑4 +). As to the kind of experiment: Imipenem MIC, broth microdilution, with fixed concentration of compound. The assay is classed as cell-based. The conditions noted are these: compound at 32 μg/mL; median of three experiments. The method, then:
as §2
For orientation: In broth dilution the organism is exposed to a series of concentrations in liquid medium.

In assay [6] the test system is A. baumannii AC-54/97 (bla IMP‑2 +). The assay is described as above. The assay is classed as cell-based. To be noted: compound at 32 μg/mL; median of three experiments. How it is done:
as §2

The subject of assay [7] is K. pneumoniae 7023 (bla VIM‑1 +). The description is as above. The conditions noted are these: compound at 32 μg/mL; median of three experiments. The assay is classed as cell-based. The method, then: as §2
Assay [8] deals with S. marcescens SI-1591 (bla VIM‑2 +). As to the kind of experiment: microbe, parasite or virus in culture. The assay is classed as cell-based. To be noted: compound at 32 μg/mL; median of three experiments. How it is done:
as §2

In assay [9] the target is T2, NDM-1 (Klebsiella pneumoniae, UniProt C7C422).
T2 construct: made in house; host or cells: E. coli
As to the kind of experiment: Spectrophotometric direct competition assay, imipenem hydrolysis (reporter substrate). The assay is classed as biochemical. How it is done: (§3) IC50 values were determined in a kinetic fluorescence-based in vitro assay as described previously. All compounds were preincubated with the recombinant protein for 30 min before addition of the fluorogenic substrate fluorocillin. , The inhibitory activity was also determined (expressed as the percentage of inhibition in the presence of 50 μM compound) using a spectrophotometric assay in which the hydrolysis of imipenem (the reporter substrate) was monitored (see Section for details).
(§4) The inhibitory activity of the compounds was determined using enzyme assays with recombinant NDM-1, VIM-1, VIM-2, IMP-1, and IMP-7. These enzymes were produced in E. coli and purified as previously described. , The fluorogenic substrate fluorocillin was synthesized according to the procedure described by Rukavishnikov et al. The assays were performed in 96-well format using black polystyrene plates (Corning, Corning, NY) at room temperature, and the measurements were carried out on the Tecan spectrophotometer Infinite F200 PRO (Tecan, Männedorf, Switzerland). The protein stock solutions were diluted in assay buffer (HEPES 50 mM, pH 7.5 containing 0.01%Triton X-100, buffer HX) to reach final concentrations of VIM-1–4 nM, IMP-7–0.1 nM; NDM-1–3 nM. Subsequently, 89 μL of the protein solution was mixed with 1 μL of the inhibitor diluted in DMSO (final DMSO concentration 1% at final assay volume of 100 μL) and incubated for 30 min. […] Negative controls were measured in the absence of enzyme (89 μL of assay buffer), whereas the positive controls were measured in the presence of enzyme and in the absence of inhibitors (1 μL of DMSO). Each measurement was performed in triplicate in three independent experiments. IC50 values were calculated using data obtained from measurements with at least eight different inhibitor concentrations, applying a sigmoidal dose–response (variable slope with four parameters) equation using GraphPad Prism 5 (GraphPad Software, La Jolla, CA) software. […] All assays were performed in at least in triplicate.

Assay [10] has as its system E. coli SI-M001 (bla NDM‑1 +). Nature of the assay: Imipenem MIC, broth microdilution, with fixed concentration of compound. It counts as cell-based. The conditions noted are these: compound at 32 μg/mL; median of three experiments. The method, then: as §1
Assay [11] concerns the target T3, VIM-2 (Escherichia coli, UniProt Q5U7L7).
T3 construct: made in house; host or cells: E. coli
Nature of the assay: biochemical. The conditions noted are these: competitive model, imipenem reporter substrate; read-out: K i VIM-2.

In assay [12] the target is T2, NDM-1. Nature of the assay: Kinetic fluorescence-based in vitro assay with fluorocillin substrate (IC50). It counts as biochemical. To be noted: 30 min preincubation. The method, then: as §3, §4
The target in assay [13] is T3, VIM-2. As to the kind of experiment: biochemical. To be noted: read-out: percentage of inhibition VIM-2. The method, then: as §3, §4
The next assay addresses T4, IMP-1 (Serratia marcescens, UniProt P52699).
T4 construct: made in house; host or cells: E. coli
Nature of the assay: biochemical. The method, then:
as §3, §4

T2 sequence (C7C422 29-270 limits assumed): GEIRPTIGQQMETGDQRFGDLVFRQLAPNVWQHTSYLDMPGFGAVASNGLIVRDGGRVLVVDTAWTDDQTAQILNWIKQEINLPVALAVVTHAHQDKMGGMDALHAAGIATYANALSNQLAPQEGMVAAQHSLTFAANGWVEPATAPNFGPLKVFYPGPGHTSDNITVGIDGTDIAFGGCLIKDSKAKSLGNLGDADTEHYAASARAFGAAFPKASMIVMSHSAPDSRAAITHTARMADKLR
T4 sequence (P52699 19-246, looked up, species assumed): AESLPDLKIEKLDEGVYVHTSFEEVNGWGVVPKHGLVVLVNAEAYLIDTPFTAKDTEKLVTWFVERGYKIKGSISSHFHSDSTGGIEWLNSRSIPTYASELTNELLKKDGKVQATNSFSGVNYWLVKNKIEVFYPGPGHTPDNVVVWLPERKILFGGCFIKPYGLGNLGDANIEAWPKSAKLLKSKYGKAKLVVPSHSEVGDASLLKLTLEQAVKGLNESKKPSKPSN
T1 sequence (P12821 30-1306): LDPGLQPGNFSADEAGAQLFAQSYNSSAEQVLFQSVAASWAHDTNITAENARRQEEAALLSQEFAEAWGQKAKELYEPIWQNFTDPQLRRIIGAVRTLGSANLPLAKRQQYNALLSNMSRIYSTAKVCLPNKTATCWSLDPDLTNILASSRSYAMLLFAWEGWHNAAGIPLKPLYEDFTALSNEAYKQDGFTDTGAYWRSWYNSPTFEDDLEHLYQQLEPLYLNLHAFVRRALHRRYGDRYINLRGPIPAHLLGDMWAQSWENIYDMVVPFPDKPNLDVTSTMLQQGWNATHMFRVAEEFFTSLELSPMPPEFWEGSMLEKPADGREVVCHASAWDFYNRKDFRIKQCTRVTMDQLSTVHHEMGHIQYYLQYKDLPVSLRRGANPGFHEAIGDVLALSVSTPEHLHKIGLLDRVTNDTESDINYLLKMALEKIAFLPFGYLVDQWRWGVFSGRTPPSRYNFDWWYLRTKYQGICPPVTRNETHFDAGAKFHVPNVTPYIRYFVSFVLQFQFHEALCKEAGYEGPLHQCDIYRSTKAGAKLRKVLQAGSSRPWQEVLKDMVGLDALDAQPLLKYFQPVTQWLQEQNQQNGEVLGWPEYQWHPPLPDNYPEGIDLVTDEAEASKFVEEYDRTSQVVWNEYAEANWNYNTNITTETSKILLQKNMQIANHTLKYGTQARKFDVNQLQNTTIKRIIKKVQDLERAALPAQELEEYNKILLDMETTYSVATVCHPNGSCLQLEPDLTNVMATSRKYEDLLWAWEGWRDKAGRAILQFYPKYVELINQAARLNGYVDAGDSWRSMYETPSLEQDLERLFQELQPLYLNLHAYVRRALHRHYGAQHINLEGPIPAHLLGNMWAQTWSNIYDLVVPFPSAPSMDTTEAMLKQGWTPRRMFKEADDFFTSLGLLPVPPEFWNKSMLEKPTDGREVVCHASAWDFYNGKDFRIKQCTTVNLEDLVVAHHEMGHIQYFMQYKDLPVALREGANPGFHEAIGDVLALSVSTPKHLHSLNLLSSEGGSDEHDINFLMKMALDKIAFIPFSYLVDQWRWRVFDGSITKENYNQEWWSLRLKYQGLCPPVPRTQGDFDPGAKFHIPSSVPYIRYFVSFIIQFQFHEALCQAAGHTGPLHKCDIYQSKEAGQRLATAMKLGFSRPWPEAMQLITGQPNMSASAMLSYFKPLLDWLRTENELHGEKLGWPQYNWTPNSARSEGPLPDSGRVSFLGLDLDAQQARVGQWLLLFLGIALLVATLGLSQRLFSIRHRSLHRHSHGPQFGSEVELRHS

Take `C[C@H](CS)C(=O)N1c2ccccc2C2(CCCCC2)[C@H]1C(N)=O` [6e, (S)-1′-((S)-3-Mercapto-2-methylpropanoyl)spiro[cyclohexane-1,3′-indoline]-2′-carboxamide]: in [1], the “potentiation of imipenem (change of imipenem MIC) on the panel, in words” value is listed as “unable to reduce the imipenem MIC”. Moreover, the inhibition (in general, how much of the control response was suppressed) at 50 µM in [2] was < 5%; on NDM-1 [9] (read-out: percentage of inhibition NDM-1), 86%; at VIM-2 [13], 97%; on IMP-1 (read-out: percentage of inhibition IMP-1), 68%. Moreover, the “imipenem MIC, E. coli SI-G001 (bla NDM‑4 +)” value in [3] amounted to 64 µg/mL. Besides, the “imipenem MIC, E. coli SI–N003 (bla NDM‑7 +)” value in assay [4] is 64 µg/mL. Moreover, in [5], the “imipenem MIC, K. pneumoniae VA-416/02 (bla VIM‑4 +)” value turned out to be 64 µg/mL. Further, in [6], the “imipenem MIC, A. baumannii AC-54/97 (bla IMP‑2 +)” value amounted to 128 µg/mL. Moreover, in assay [7], the “imipenem MIC, K. pneumoniae 7023 (bla VIM‑1 +)” value is 64 µg/mL. Also, in assay [8], the “imipenem MIC, S. marcescens SI-1591 (bla VIM‑2 +)” value was found to be 16 µg/mL. For the same compound, the Ki on NDM-1 [9] (competitive model, imipenem reporter substrate, read-out: K i NDM-1) turned out to be 2000 ± 100 nM; on VIM-2 [11], 100 ± 10 nM; at IMP-1 (competitive model, imipenem reporter substrate, read-out: K i IMP-1), 3800 ± 300 nM. Moreover, in [10], the “imipenem MIC, E. coli SI-M001 (bla NDM‑1 +)” value came out at 32 µg/mL. Besides, at NDM-1 [12], the midpoint of inhibition, the IC50, lay at 7400 nM.
